We go through 19 molecules from US20240246967A1, “AXL COMPOUNDS” (ARCUS BIOSCIENCES, INC., priority 2021, published 2024).

Structures are written as SMILES. Where only a bound is given, the exact number is not on record here.

The target of assay [1] is T1, Axl (Homo sapiens, UniProt P30530).
T1 sequence (P30530 26-894): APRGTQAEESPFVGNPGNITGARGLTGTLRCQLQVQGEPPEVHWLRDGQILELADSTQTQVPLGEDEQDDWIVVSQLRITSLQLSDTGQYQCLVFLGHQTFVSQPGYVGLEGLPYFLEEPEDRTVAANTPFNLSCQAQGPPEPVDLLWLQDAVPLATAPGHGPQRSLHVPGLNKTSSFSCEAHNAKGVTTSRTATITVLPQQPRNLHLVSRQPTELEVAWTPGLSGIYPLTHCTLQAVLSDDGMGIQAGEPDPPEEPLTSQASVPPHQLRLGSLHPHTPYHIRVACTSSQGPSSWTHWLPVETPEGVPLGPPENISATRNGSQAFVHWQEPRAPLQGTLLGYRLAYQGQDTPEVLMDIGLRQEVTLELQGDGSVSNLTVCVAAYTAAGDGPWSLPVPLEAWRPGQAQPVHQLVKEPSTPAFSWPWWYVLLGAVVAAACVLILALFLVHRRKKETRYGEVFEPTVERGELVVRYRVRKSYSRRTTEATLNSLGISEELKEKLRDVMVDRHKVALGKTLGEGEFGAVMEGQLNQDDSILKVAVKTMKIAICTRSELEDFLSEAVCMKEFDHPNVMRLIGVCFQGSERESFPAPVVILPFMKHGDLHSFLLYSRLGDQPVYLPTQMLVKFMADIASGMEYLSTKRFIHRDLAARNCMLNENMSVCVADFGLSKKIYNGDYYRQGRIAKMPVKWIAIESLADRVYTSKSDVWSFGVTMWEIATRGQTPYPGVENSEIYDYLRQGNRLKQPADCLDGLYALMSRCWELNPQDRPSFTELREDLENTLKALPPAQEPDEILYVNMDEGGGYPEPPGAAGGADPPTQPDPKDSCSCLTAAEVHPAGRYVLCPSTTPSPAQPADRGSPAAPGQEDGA
As to the kind of experiment: HTRF KinEASE-TK biochemical potency assay, AXL. To be noted: 5 nM AXL, 700 μM ATP, 800 nM TK Substrate-biotin. Details: purchased Invitrogen. An outline of the steps: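 Final conditions: 5 nM AXL, 1 nM TYRO3 or MER, 50 mM HEPES pH 7.4, 10 mM MgCl2, 0.01% BSA, 1 mM DTT, 700 μM ATP. Reaction ran 2 h at RT after 1 h preincubation with compound; HTRF signal read at 665/620 nm.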
Background: TR-FRET usually uses a lanthanide donor and a delayed reading to cut background.

Assay [2] has as its target T1, Axl. As to the kind of experiment: Axl NanoBRET intracellular kinase assay (intracellular binding, Cell Binding). Details: host or cells: HEK-293. To be noted: HEK-293 cells transfected with Axl-NanoLuc fusion vector; 0.35 μM K-5 NanoBRET tracer. Summed up: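 In intact HEK-293 cells transiently expressing NanoLuc-tagged Axl, compounds compete with the K-5 tracer (0.35 μM, 2 h, 37 °C) after a 1 h preincubation. Readout is the 610/450 nm emission ratio.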

What is called IC50 is the concentration at which inhibition is half-maximal. Low readings indicate inhibition by little substance, high ones a need for much substance. As to `C[C@@H]1CCCN1C1(C)CCc2ccc(-c3cnc4[nH]nc(-c5ccc(S(N)(=O)=O)cc5)c4c3)cc2CC1` (stereo partly drawn) [Example 95, 4-(5-(7-Methyl-7-((R)-2-methylpyrrolidin-1-yl)-6,7,8,9-tetrahydro-5H-benzo[7]annulen-2-yl)-1H-pyrazolo[3,4-b]pyridin-3-yl)benzenesulfonamide], the IC50 against Axl [1] and at Axl [2] was below 100 nM throughout.
With `CC(C)(O)c1ccc(-c2n[nH]c3ncc(-c4ccc5c(c4)CCC4(CCCN4)CC5)cc23)cc1Cl` (centres unmarked) [Example 96, 2-[2-Chloro-4-(5-{5,6,8,9-tetrahydrospiro[benzo[7]annulene-7,2′-pyrrolidin]-3-yl}-1H-pyrazolo[3,4-b]pyridin-3-yl)phenyl]propan-2-ol], the IC50 against Axl [1] was below 100 nM; on Axl [2], above 1000 nM.
Regarding `C[C@@H]1CCCN1C1CCc2ccc(-c3cnc4[nH]nc(-c5ccc(C(C)(C)O)cn5)c4c3)cc2CC1` (stereo partly drawn) [Example 97, 2-[6-(5-{7-[(2R)-2-Methylpyrrolidin-1-yl]-6,7,8,9-tetrahydro-5H-benzo[7]annulen-2-yl}-1H-pyrazolo[3,4-b]pyridin-3-yl)pyridin-3-yl]propan-2-ol], the IC50 was below 100 nM against Axl [1] and above 1000 nM on Axl [2].
`C[C@@H]1CCCN1C1(C)CCc2ccc(-c3cnc4[nH]nc(-c5cnc(C(C)(C)O)c(Cl)c5)c4c3)cc2CC1` (stereo partly drawn) [Example 98, 2-[3-Chloro-5-(5-{7-methyl-7-[(2R)-2-methylpyrrolidin-1-yl]-6,7,8,9-tetrahydro-5H-benzo[7]annulen-2-yl}-1H-pyrazolo[3,4-b]pyridin-3-yl)pyridin-2-yl]propan-2-ol]: the IC50 was below 100 nM on Axl [1] and 100 to 1000 nM at Axl [2].
Take `C[C@@H]1CCCN1C1(C)CCc2ccc(-c3cnc4[nH]nc(-c5ccc(C(=O)N[C@@H]6CCOC6)cc5)c4c3)cc2CC1` (stereo partly drawn) [Example 99, 4-(5-{7-Methyl-7-[(2R)-2-methylpyrrolidin-1-yl]-6,7,8,9-tetrahydro-5H-benzo[7]annulen-2-yl}-1H-pyrazolo[3,4-b]pyridin-3-yl)-N-[(3R)-oxolan-3-yl]benzamide]: the concentration for half-maximal inhibition (IC50) against Axl [1] and at Axl [2] was below 100 nM each time.
For the molecule `CCS(=N)(=O)c1ccc(-c2n[nH]c3ncc(-c4ccc5c(c4)CCC(C)(N4CCC[C@H]4C)CC5)cc23)cc1` (stereo partly drawn) [Example 100, Ethyl(imino)[4-(5-{7-methyl-7-[(2R)-2-methylpyrrolidin-1-yl]-6,7,8,9-tetrahydro-5H-benzo[7]annulen-2-yl}-1H-pyrazolo[3,4-b]pyridin-3-yl)phenyl]-λ^6-sulfanone], the IC50 is below 100 nM against Axl [1] and 100 to 1000 nM at Axl [2].
On to `C[C@@H]1CCCN1[C@@H]1CCc2cc(-c3cnc4[nH]nc(-c5ccc(S(=O)(=O)C6CC6)cc5)c4c3)cnc2CC1` [Example 101, (2R)-1-(3-{3-[4-(Cyclopropanesulfonyl)phenyl]-1H-pyrazolo[3,4-b]pyridin-5-yl}-5H,6H,7H,8H,9H-cyclohepta[b]pyridin-7-yl)-2-methylpyrrolidine], for which the IC50 is below 100 nM against Axl [1] and above 1000 nM on Axl [2].
On the same counts, the results for `C[C@@H]1CCCN1[C@H]1CCc2cc(-c3cnc4[nH]nc(-c5ccc(S(=O)(=O)C6CC6)cc5)c4c3)cnc2CC1` [Example 102, (2R)-1-[(7S)-3-{3-[4-(Cyclopropanesulfonyl)phenyl]-1H-pyrazolo[3,4-b]pyridin-5-yl}-5H,6H,7H,8H,9H-cyclohepta[b]pyridin-7-yl]-2-methylpyrrolidine] are 100 to 1000 nM and above 1000 nM.
`COC1CCN(S(=O)(=O)c2ccc(-c3n[nH]c4ncc(-c5ccc6c(c5)CCC(C)(N5CCC[C@H]5C)CC6)cc34)cc2)CC1` (stereo partly drawn) [Example 103, 3-(4-((4-Methoxypiperidin-1-yl)sulfonyl)phenyl)-5-(7-methyl-7-((R)-2-methylpyrrolidin-1-yl)-6,7,8,9-tetrahydro-5H-benzo[7]annulen-2-yl)-1H-pyrazolo[3,4-b]pyridine]: the figures for the IC50 against Axl [1] and at Axl [2] were below 100 nM and 100 to 1000 nM, respectively.
`C[C@@H]1CCCN1C1(C)CCc2ccc(-c3cnc4[nH]nc(-c5ccc(S(=O)(=O)N6CCC6)cc5)c4c3)cc2CC1` (stereo partly drawn) [Example 104, (2R)-1-(2-{3-[4-(Azetidine-1-sulfonyl)phenyl]-1H-pyrazolo[3,4-b]pyridin-5-yl}-7-methyl-6,7,8,9-tetrahydro-5H-benzo[7]annulen-7-yl)-2-methylpyrrolidine]: the half-inhibitory concentration (IC50) against Axl [1] and at Axl [2] was below 100 nM in each case.
Regarding `C[C@@H]1CCCN1C1(C)CCc2ccc(-c3cnc4[nH]cc(-c5ccc(S(=O)(=O)C6CC6)cc5)c4c3)cc2CC1` (stereo partly drawn) [Example 105, (2R)-1-(2-{3-[4-(Cyclopropanesulfonyl)phenyl]-1H-pyrrolo[2,3-b]pyridin-5-yl}-7-methyl-6,7,8,9-tetrahydro-5H-benzo[7]annulen-7-yl)-2-methylpyrrolidine], the IC50 at Axl [1] and at Axl [2] was below 100 nM in each case.
With `C[C@@H]1CCCN1C1(C)CCc2ccc(-c3cnc4[nH]nc(-c5ccc(N6CCOCC6)cc5)c4c3)cc2CC1` (stereo partly drawn) [Example 107, 4-[4-(5-{7-Methyl-7-[(2R)-2-methylpyrrolidin-1-yl]-6,7,8,9-tetrahydro-5H-benzo[7]annulen-2-yl}-1H-pyrazolo[3,4-b]pyridin-3-yl)phenyl]morpholine], the IC50 is below 100 nM against Axl [1] and above 1000 nM at Axl [2].
With `COCCNCc1ccc(-c2n[nH]c3ncc(-c4ccc5c(c4)CCC(C)(N4CCC[C@H]4C)CC5)cc23)cc1` (stereo partly drawn) [Example 108, (2-Methoxyethyl)({[4-(5-{7-methyl-7-[(2R)-2-methylpyrrolidin-1-yl]-6,7,8,9-tetrahydro-5H-benzo[7]annulen-2-yl}-1H-pyrazolo[3,4-b]pyridin-3-yl)phenyl]methyl})amine], the results for the IC50 at Axl [1] and at Axl [2] were below 100 nM and 100 to 1000 nM, respectively.
For the molecule `C[C@@H]1CCCN1C1CCc2ccc(-c3cnc4[nH]nc(-c5ccc(S(=O)(=O)C6CC6)cc5)c4c3)cc2C(C)(C)C1` (stereo partly drawn) [Example 109, (2R)-1-(2-{3-[4-(Cyclopropanesulfonyl)phenyl]-1H-pyrazolo[3,4-b]pyridin-5-yl}-9,9-dimethyl-6,7,8,9-tetrahydro-5H-benzo[7]annulen-7-yl)-2-methylpyrrolidine], the concentration for half-maximal inhibition (IC50) at Axl [1] and at Axl [2] was below 100 nM in each case.
For the molecule `COCCOc1ccc(-c2n[nH]c3ncc(-c4ccc5c(c4)CCC(C)(N4CCC[C@H]4C)CC5)cc23)cc1` (stereo partly drawn) [Example 110, 3-(4-(2-Methoxyethoxy)phenyl)-5-(7-methyl-7-((R)-2-methylpyrrolidin-1-yl)-6,7,8,9-tetrahydro-5H-benzo[7]annulen-2-yl)-1H-pyrazolo[3,4-b]pyridine], the IC50 against Axl [1] and at Axl [2] was below 100 nM throughout.
In the case of `COCCS(=O)(=O)c1ccc(-c2n[nH]c3ncc(-c4ccc5c(c4)CCC(C)(N4CCC[C@H]4C)CC5)cc23)cc1` (stereo partly drawn) [Example 111, (2R)-1-(2-{3-[4-(2-Methoxyethanesulfonyl)phenyl]-1H-pyrazolo[3,4-b]pyridin-5-yl}-7-methyl-6,7,8,9-tetrahydro-5H-benzo[7]annulen-7-yl)-2-methylpyrrolidine], the IC50 against Axl [1] and at Axl [2] was below 100 nM in each case.
For the molecule `O=C([C@@H]1CCCN1)N1CCc2ccc(-c3cnc4[nH]nc(-c5ccc(S(=O)(=O)C6CC6)cc5)c4c3)cc2CC1` [Example 112, 7-{3-[4-(Cyclopropanesulfonyl)phenyl]-1H-pyrazolo[3,4-b]pyridin-5-yl}-3-[(2S)-pyrrolidine-2-carbonyl]-2,3,4,5-tetrahydro-1H-3-benzazepine], the figures for the IC50 at Axl [1] and on Axl [2] were below 100 nM and 100 to 1000 nM, respectively.
On to `O=C([C@H]1CCCN1)N1CCc2ccc(-c3cnc4[nH]nc(-c5ccc(S(=O)(=O)C6CC6)cc5)c4c3)cc2CC1` [Example 113, 7-{3-[4-(Cyclopropanesulfonyl)phenyl]-1H-pyrazolo[3,4-b]pyridin-5-yl}-3-[(2R)-pyrrolidine-2-carbonyl]-2,3,4,5-tetrahydro-1H-3-benzazepine], for which the IC50 against Axl [1] is below 100 nM; at Axl [2] it was 100 to 1000 nM.
On the same counts, the results for `COc1cc(-c2n[nH]c3ncc(-c4ccc5c(c4)CCC(C)(N4CCC[C@H]4C)CC5)cc23)ccc1OC[C@H]1COCCO1` (stereo partly drawn) [Example 114, (2R)-1-{2-[3-(4-{[(2R)-1,4-Dioxan-2-yl]methoxy}-3-methoxyphenyl)-1H-pyrazolo[3,4-b]pyridin-5-yl]-7-methyl-6,7,8,9-tetrahydro-5H-benzo[7]annulen-7-yl}-2-methylpyrrolidine] are below 100 nM and below 100 nM.
